The results in this text go back to ChEMBL document CHEMBL3085722, “Stereochemical assignment of the fungal metabolites pestalotiopsones D and E through enantiopure synthesis” (J Nat Prod, 2013).

Converted amounts (≈) assume the structure as drawn.

In the first test the test system is Mycolicibacterium smegmatis. Description: Antibacterial activity against Mycobacterium smegmatis after 18 hrs by turbidity assay. Type of test: functional, organism-based.
`COC(=O)Cc1cc(OC)cc2oc(CCCCC[C@@H](C)OC(C)=O)cc(=O)c12` returned a minimum inhibitory concentration (MIC) above 500 µg/mL.
In turn, `CCOC(=O)Cc1cc(O)cc2oc(CCCCC[C@@H](C)O)cc(=O)c12` displayed an MIC above 500 µg/mL.
Take `COC(=O)Cc1cc(O)cc2oc(CCCCC[C@@H](C)O)cc(=O)c12`: the MIC is above 500 µg/mL.
In the case of `COC(=O)Cc1cc(O)cc2oc(CCCCC[C@H](C)O)cc(=O)c12`, the concentration for half-maximal inhibition (IC50) was above 500 µg/mL and the MIC is above 500 µg/mL.
Take `CCOC(=O)Cc1cc(O)cc2oc(CCCCC[C@H](C)O)cc(=O)c12`: the IC50 came to 484 µg/mL (≈ 1340 µM) and the MIC was above 500 µg/mL.
Turning to `COC(=O)Cc1cc(OC)cc2oc(CCCCC[C@H](C)OC(C)=O)cc(=O)c12`, the concentration for half-maximal inhibition (IC50) is above 500 µg/mL and the MIC was above 500 µg/mL.
For the compound `COC(=O)Cc1cc(OC)cc2c1C(=O)CC(CCCCC[C@@H](C)OC(C)=O)O2` (mixture of isomers), the MIC was above 500 µg/mL.
In turn, `COC(=O)Cc1cc(OC)cc2c1C(=O)CC(CCCCC[C@H](C)OC(C)=O)O2` (mixture of isomers) showed a half-maximal inhibitory concentration (IC50) of 492 µg/mL and a minimal inhibitory concentration (MIC) above 500 µg/mL.
Consider `NC[C@H]1O[C@H](O[C@H]2[C@H](O)[C@@H](O[C@H]3O[C@H](CO)[C@@H](O)[C@H](N)[C@H]3O)[C@H](N)C[C@@H]2N)[C@H](O)[C@@H](O)[C@@H]1O` [KANAMYCIN], for which the IC50 was below 1 µg/mL.

Another test relates to Pseudomonas aeruginosa. As to the kind of experiment: Antibacterial activity against Pseudomonas aeruginosa after 18 hrs by turbidity assay. The format is functional, organism-based.
The compound `COC(=O)Cc1cc(OC)cc2oc(CCCCC[C@@H](C)OC(C)=O)cc(=O)c12` displayed an MIC above 500 µg/mL.
`CCOC(=O)Cc1cc(O)cc2oc(CCCCC[C@@H](C)O)cc(=O)c12` showed an MIC above 500 µg/mL.
The same measure, in the same setting: then `COC(=O)Cc1cc(O)cc2oc(CCCCC[C@@H](C)O)cc(=O)c12`, with above 500 µg/mL.
Turning to `COC(=O)Cc1cc(O)cc2oc(CCCCC[C@H](C)O)cc(=O)c12`, the IC50 was above 500 µg/mL and the MIC was above 500 µg/mL.
For the compound `CCOC(=O)Cc1cc(O)cc2oc(CCCCC[C@H](C)O)cc(=O)c12`, the IC50 came to 440 µg/mL (≈ 1210 µM) and the MIC was above 500 µg/mL.
The like results for `COC(=O)Cc1cc(OC)cc2oc(CCCCC[C@H](C)OC(C)=O)cc(=O)c12` were, in that order, 465 µg/mL (≈ 1150 µM) and above 500 µg/mL.
For `COC(=O)Cc1cc(OC)cc2c1C(=O)CC(CCCCC[C@@H](C)OC(C)=O)O2` (mixture of isomers), the MIC is above 500 µg/mL.
Take `COC(=O)Cc1cc(OC)cc2c1C(=O)CC(CCCCC[C@H](C)OC(C)=O)O2` (mixture of isomers): the IC50 worked out at 445 µg/mL and the MIC is above 500 µg/mL.
As to `NC[C@H]1O[C@H](O[C@H]2[C@H](O)[C@@H](O[C@H]3O[C@H](CO)[C@@H](O)[C@H](N)[C@H]3O)[C@H](N)C[C@@H]2N)[C@H](O)[C@@H](O)[C@@H]1O` [KANAMYCIN], it took 209 µg/mL (≈ 431 µM) to reach half-maximal inhibition (IC50).

For the next test, the system named is Staphylococcus epidermidis. As to the kind of experiment: Antibacterial activity against Staphylococcus epidermidis after 18 hrs by turbidity assay. Type of test: functional, organism-based.
Consider `COC(=O)Cc1cc(OC)cc2oc(CCCCC[C@@H](C)OC(C)=O)cc(=O)c12`, for which the MIC is above 500 µg/mL.
The same measure, in the same setting: the same measure for `CCOC(=O)Cc1cc(O)cc2oc(CCCCC[C@@H](C)O)cc(=O)c12`: above 500 µg/mL; for `COC(=O)Cc1cc(O)cc2oc(CCCCC[C@@H](C)O)cc(=O)c12`: above 500 µg/mL.
The compound `COC(=O)Cc1cc(O)cc2oc(CCCCC[C@H](C)O)cc(=O)c12` showed an IC50 above 500 µg/mL and an MIC above 500 µg/mL.
Consider `CCOC(=O)Cc1cc(O)cc2oc(CCCCC[C@H](C)O)cc(=O)c12`, for which the IC50 was above 500 µg/mL and the MIC is above 500 µg/mL.
With `COC(=O)Cc1cc(OC)cc2oc(CCCCC[C@H](C)OC(C)=O)cc(=O)c12`, the IC50 was above 500 µg/mL and the MIC was above 500 µg/mL.
Compound `COC(=O)Cc1cc(OC)cc2c1C(=O)CC(CCCCC[C@@H](C)OC(C)=O)O2` (mixture of isomers) registered an MIC above 500 µg/mL.
In turn, `COC(=O)Cc1cc(OC)cc2c1C(=O)CC(CCCCC[C@H](C)OC(C)=O)O2` (mixture of isomers) returned an IC50 above 500 µg/mL and a minimum inhibitory concentration (MIC) above 500 µg/mL.
Consider `NC[C@H]1O[C@H](O[C@H]2[C@H](O)[C@@H](O[C@H]3O[C@H](CO)[C@@H](O)[C@H](N)[C@H]3O)[C@H](N)C[C@@H]2N)[C@H](O)[C@@H](O)[C@@H]1O` [KANAMYCIN], for which the IC50 turned out to be 90 µg/mL (≈ 186 µM).

For a further test, the system named is Escherichia coli. Description: Antibacterial activity against Escherichia coli after 18 hrs by turbidity assay. Type of test: functional, organism-based.
Compound `COC(=O)Cc1cc(OC)cc2oc(CCCCC[C@@H](C)OC(C)=O)cc(=O)c12` showed a minimal inhibitory concentration (MIC) above 500 µg/mL.
With `CCOC(=O)Cc1cc(O)cc2oc(CCCCC[C@@H](C)O)cc(=O)c12`, the MIC is above 500 µg/mL.
On to `COC(=O)Cc1cc(O)cc2oc(CCCCC[C@@H](C)O)cc(=O)c12`, for which the MIC was above 500 µg/mL.
With `COC(=O)Cc1cc(O)cc2oc(CCCCC[C@H](C)O)cc(=O)c12`, the concentration for half-maximal inhibition (IC50) is above 500 µg/mL and the minimum inhibitory concentration (MIC) is above 500 µg/mL.
`CCOC(=O)Cc1cc(O)cc2oc(CCCCC[C@H](C)O)cc(=O)c12` yielded an IC50 above 500 µg/mL and an MIC above 500 µg/mL.
As to `COC(=O)Cc1cc(OC)cc2oc(CCCCC[C@H](C)OC(C)=O)cc(=O)c12`, the IC50 is above 500 µg/mL and the MIC is above 500 µg/mL.
Compound `COC(=O)Cc1cc(OC)cc2c1C(=O)CC(CCCCC[C@@H](C)OC(C)=O)O2` (mixture of isomers) gave an MIC above 500 µg/mL.
Regarding `COC(=O)Cc1cc(OC)cc2c1C(=O)CC(CCCCC[C@H](C)OC(C)=O)O2` (mixture of isomers), the IC50 was above 500 µg/mL and the MIC is above 500 µg/mL.
Compound `NC[C@H]1O[C@H](O[C@H]2[C@H](O)[C@@H](O[C@H]3O[C@H](CO)[C@@H](O)[C@H](N)[C@H]3O)[C@H](N)C[C@@H]2N)[C@H](O)[C@@H](O)[C@@H]1O` [KANAMYCIN] registered an IC50 below 1 µg/mL.

For orientation: MIC means the least concentration at which growth counts as inhibited. A lower MIC goes with a more susceptible organism. By IC50 is commonly meant the concentration at which inhibition is half-maximal.
